{"source": "patent US9463256B2", "about": "“Pretargeting kit, method and agents used therein” (KONINKLIJKE PHILIPS N.V., priority 2010, dated 2016)", "key": {"[1]": {"assay": "Trans-cyclooctene stability in vivo (blood samples reacted with excess ^111In-tetrazine 28)", "design": "species or system mice", "details": "for in vivo stability of CC49-bound TCO (reactive TCO in blood, corrected for mAb clearance): tumor-free mice, up to 4 days post injection", "description": "Tumor-free mice (n=3 per group) were injected intravenously with CC49-PEG10-TCO-O major (CC49-23a; 8.4 TCO per CC49; 300 μg/100 μL per mouse), CC49-PEG10-TCO-C minor (CC49-27b; 3.3 TCO per CC49, […]), and CC49-TCO-O major without spacer (CC49-20a; 8.0 TCO per CC49, 300 μg/100 μL per mouse). At selected time points (from 1 hour up to 4 days post injection) blood samples were withdrawn from the vena saphena and collected in vials containing heparin. The blood samples were weighed and an excess ^111In-tetrazine 28 was added. After 20 min incubation at 37° C., blood aliquots were 10-fold diluted with PBS and analyzed by SDS-PAGE. The cycloaddition yields were determined from the radioactivity in the bands corresponding to the mAb and the counts were quantified with AIDA Image Analyzer software. The amount of mAb present in blood at each time point (% ID/g blood) was evaluated in three separate groups of mice (n=3), which were injected with the corresponding ^125I—CC49-TCO (300 μg/100 μL per mouse, ca. 0.2 MBq). The data, corrected for mAb clearance, were normalized to 100% ID TCO at t=0.\nThis experiment was carried out to expand the series of in vivo TCO stability measurements described in Example 6. […] In the new experiment, following the same procedure, we tested the in vivo stability of a CC49-bound TCO minor without PEG spacer (20b, 6.9 equivalents bound)."}, "[2]": {"assay": "In vitro reaction yields of CC49-bound TCO with tetrazine probe 28 at low concentration", "assay_type": "physicochemical", "details": "TCO conjugated to CC49; 1 min at 37° C. in PBS; micromolar concentrations and lower", "description": "To this aim we used a TCO major 20a (k2=19600±1400 M^−1s^−1) and a TCO minor 20b (k2=136700±2300 M^−1s^−1) conjugated to CC49 (6.1 and 6.6 TCOs per molecule for major and minor, respectively). The two mAb solutions were diluted in PBS to obtain TCO concentrations ranging from 1×10^−5M to 1×10^−8M and were reacted with carrier-added ^177Lu-tetrazine (1 eq. with respect to mAb) for 1 min at 37° C. Aliquots of the reaction mixtures (20 μl) where then quenched with an excess of tetrazine 6, added with non-reducing sample buffer and analyzed by SDS-PAGE. The cycloaddition yields were determined from the radioactivity in the bands corresponding to the mAb and the counts were quantified with the AIDA Image Analyzer software. The experiments were repeated in triplicate. As expected for a bimolecular reaction, a decrease in the concentration of the two reactive species in solution translates into lower reaction yields after 1 min incubation (FIG. 18)."}, "[3]": {"assay": "Second order kinetic constants of the reactions between CC49-TCO constructs and ^177Lu-28", "assay_type": "physicochemical", "details": "TCO conjugated to CC49, reaction with ^177Lu-28 in PBS, pH 7.4 at 37° C.", "description": "Typically, 1 mg CC49 (5 mg/mL solution in PBS) was modified with 0.6 molar (for kinetic measurements) or 10 molar eq. (for in vivo studies) of TCO-NHS constructs in a total volume of 250 μL PBS. The pH was adjusted to 9 with 1 M sodium carbonate buffer. The reactions were carried out under agitation for 30 min at RT in the dark. Subsequently, the TCO-modified mAbs were extensively washed with PBS using Amicon Ultra-15 centrifugal devices. The numbers of TCO groups per antibody were determined with a tetrazine titration, outlined below.\nTetrazine-DOTA 28 was radiolabeled with carrier-added ^177Lu. mAb (25 μg) modified with ca. 0.6 molar eq. TCO was reacted with 3 molar eq. of ^177Lu-28 (0.5 nM). mAb (25 μg) modified with ca. 10 molar eq. TCO was reacted with 15 molar eq. of ^177Lu-28 (2.5 nM). The reactions were carried out in 50 μL PBS pH 7.4 at 37° C. for 10 min. The reaction mixtures were analyzed by SDS-PAGE and phosphor imager and the reaction yields were determined from the radioactivity in the bands corresponding to the mAb. The counts were quantified with AIDA Image Analyzer software (Raytest).\nTetrazine-DOTA 28 was radiolabeled with carrier-added ^177Lu at a specific activity of 3 MBq/μg. ^177Lu-28 (33 nM) was reacted with increasing concentrations of CC49 modified with 1 eq. of TCO (0.33, 1, and 1.67 μM) in 200 μL PBS, pH 7.4 at 37° C. for 5 min. At selected times (15, 30, 45, 60, 90, 120, 180, and 300 sec) a 20 μL sample was withdrawn and quenched with tetrazine 6 (FIG. 5; described in Rossin et al. Angew Chem Int Ed 2010, 49, 3375) (1.5 μL, 5 mg/mL in DMF). Aliquots of each mixture were analyzed by SDS-PAGE and phosphor imager and the cycloaddition yields were determined from the radioactivity in the bands corresponding to the mAb. The counts were quantified with AIDA Image Analyzer software (Raytest).\nThe newly synthesized TCO constructs were evaluated with respect to their reactivity towards tetrazine 28. The procedures are described in Example 5."}, "[4]": {"assay": "Reactivity of tetrazines, competition experiment against reference tetrazine", "assay_type": "physicochemical", "details": "reference 3-(5-acetamido-2-pyridyl)-6-(2-pyridyl)-1,2,4,5-tetrazine; reaction with 10b", "description": "A competition experiment was performed to determine the reactivity ratio of a specific tetrazine and 3-(5-acetamido-2-pyridyl)-6-(2-pyridyl)-1,2,4,5-tetrazine (that was chosen as the reference tetrazine), in the inverse-electron demand Diels-Alder reaction with trans-cyclooct-4-ene-1-ol (minor isomer, 10b).\nTo acetonitrile (0.100 mL) was added 5 μL of a solution of the specific tetrazine in DMSO (25 mM) and 5 μL of a solution of the reference tetrazine in DMSO (25 mM). This mixture was diluted with water (0.9 mL), and the absolute amounts of both tetrazines were determined by LC-MS/PDA analysis. Subsequently, a solution of trans-cyclooct-4-ene-1-ol (minor isomer, 10b) in DMSO (25 μL 2.5 mM) was added, and the mixture was stirred for 5 min. Again, the absolute amounts of both tetrazines were determined by LC-MS/PDA analysis, and conversions for both tetrazines was calculated. From these conversions, the reactivity ratio of both tetrazines was determined."}}, "data": [{"smiles": "O=C(ON1C(=O)CCC1=O)c1ccc(COC2CC/C=C/CCC2)cc1", "note": "(centres unmarked) [20a, (E-major)-2,5-Dioxopyrrolidin-1-yl 4-((cyclooct-4-enyloxy)methyl)benzoate]", "values": [{"measurement": "time stable in vivo", "setting": "[1]; TCO bound to CC49, tumor-free mice", "value": "at least 4 days"}]}, {"smiles": "O=C(ON1C(=O)CCC1=O)c1ccc(COC2CC/C=C/CCC2)cc1", "note": "(centres unmarked) [20b, (E-minor)-2,5-Dioxopyrrolidin-1-yl 4-((cyclooct-4-enyloxy)methyl)benzoate]", "values": [{"measurement": "reaction yields with ^177Lu-tetrazine versus equatorial TCO 20a", "setting": "[2]", "value": "significantly higher"}, {"measurement": "in vivo stability of CC49-bound TCO (reactive TCO in blood, corrected for mAb clearance)", "setting": "[1]", "value": "only slowly degrade in vivo"}]}, {"smiles": "O=C(CCOCCOCCOCCOCCOCCOCCOCCOCCOCCOCCOCCOCCNC(=O)c1ccc(COC2CC/C=C/CCC2)cc1)ON1C(=O)CCC1=O", "note": "(centres unmarked) [23a, (E-major)-2,5-Dioxopyrrolidin-1-yl 1-(4-((cyclooct-4-en-1-yloxy)methyl)phenyl)-1-oxo-5,8,11,14,17,20,23,26,29,32,35,38-dodecaoxa-2-azahentetracontan-41-oate]", "values": [{"measurement": "in vivo stability of CC49-bound TCO (reactive TCO in blood, corrected for mAb clearance)", "setting": "[1]", "value": "unstable in vivo"}, {"measurement": "Second order kinetic constant, PEG10 Spacer", "setting": "[3]", "value": "(23a) 16500 ± 1400 M^−1s^−1"}]}, {"smiles": "O=C(CCOCCOCCOCCOCCOCCOCCOCCOCCOCCOCCOCCOCCNC(=O)c1ccc(NC(=O)OC2CC/C=C/CCC2)cc1)ON1C(=O)CCC1=O", "note": "(centres unmarked) [27b, (E-minor)-2,5-dioxopyrrolidin-1-yl 1-(4-(((cyclooct-4-en-1-yloxy)carbonyl)amino)phenyl)-1-oxo-5,8,11,14,17,20,23,26,29,32,35,38-dodecaoxa-2-azahentetracontan-41-oate]", "values": [{"measurement": "in vivo stability of CC49-bound TCO (reactive TCO in blood, corrected for mAb clearance)", "setting": "[1]", "value": "unstable in vivo"}, {"measurement": "Second order kinetic constant, PEG10 Spacer", "setting": "[3]", "value": "(27b) 111600 ± 1800 M^−1s^−1"}]}, {"smiles": "CCCC(=O)Nc1ccc(-c2nnc(-c3ccc(C(F)(F)F)cn3)nn2)nc1", "note": "[compound 35, 3-(5-Butyramido-2-pyridyl)-6-(5-(trifluoromethyl)-2-pyridyl)-1,2,4,5-tetrazine]", "values": [{"measurement": "k2/k2 ref", "setting": "[4]", "value": 1.84}]}, {"smiles": "CCCC(=O)Nc1ccc(-c2nnc(-c3ccc(F)cn3)nn2)nc1", "note": "[compound 38, 3-(5-Fluoro-2-pyridyl)-6-(5-butanamido-2-pyridyl)-1,2,4,5-tetrazine]", "values": [{"measurement": "k2/k2 ref", "setting": "[4]", "value": 0.95}]}, {"smiles": "Cc1nnc(-c2ccccn2)nn1", "note": "[compound 40, 3-(2-Pyridyl)-6-methyl-1,2,4,5-tetrazine]", "values": [{"measurement": "k2/k2 ref", "setting": "[4]", "value": 0.25}]}, {"smiles": "c1cc(-c2nnc(-c3ccncc3)nn2)ccn1", "note": "[compound 42, 3,6-Bis(4-pyridyl)-1,2,4,5-tetrazine]", "values": [{"measurement": "k2/k2 ref", "setting": "[4]", "value": 0.83}]}]}
